Measurements taken from article PMC6437461, “Histone deacetylase inhibitory and cytotoxic activities of the constituents from the roots of three species of Ferula” (Iranian Journal of Basic Medical Sciences, 2019).
Where two headings read alike, the source gives them in different places.

What was measured:
A549 cells = assay: AlamarBlue cytotoxicity assay, A549; format: cell-based; conditions: Homo sapiens, 48 hr treatment
Protocol: (§1) Cervical (HeLa), ovarian (A2780), and lung (A549) cancer cells, obtained from Biotechnology Laboratory stocks, Biotechnology Research Center (Mashhad, Iran) and colon (HCT116) obtained from National Cell Bank of Iran (NCBI), Pasteur Institute of Iran, Tehran (Iran).
(§2) In vitro cytotoxicity tests were performed using a nonfluorescent substrate, AlamarBlue® (Paisely, UK) cell viability assay as described with some modifications (16). […] After counting, the cells were seeded in 96-well microplates (1 × 10^4 cells/100 µl in each well) and cultivated for 24 hr before addition of test compounds. Triplicate plates for three wells of each concentration were seeded. […] Thereafter, 10 μl of AlamarBlue® reagent was added and incubated for another 4 hr. Then, absorbance was measured at 600 nm using an ELISA microplate reader (Epoch; USA). IC50 values were calculated by nonlinear regression analysis using GraphPad prism (Version 6.0) software.

pan-HDAC [1] = assay: Whole-cell HDAC inhibition assay in HCT116 cells; conditions: read-out: HDAC inhibition IC50 HCT116, HCT116, 18 hr incubation, Boc-Lys(ε-Ac)-AMC substrate
Protocol: (§3) Three wells defined as 100% initial activity and three wells defined as background and three wells for each concentration were seeded. […] The test compounds, were dissolved in dimethyl sulfoxide (final concentrations of DMSO per well was 0.1% V/V) and their concentrations adjusted to 70, 40, 20, 5, 1 μM through dilution with the growth medium. The first step of reaction was started by adding 10 µl of 3 mM Boc-Lys (ε-Ac)-AMC (Bachem, Switzerland) to each well to reach a final concentration of 0.3 mM. Then, cells were incubated with the Boc-Lys (ε-Ac)-AMC for 3 hr under cell culture conditions. […] The final volume of the solution (210 µl per well) were transferred to the black 96-well microplate with flat clear bottom. We calculated fluorescence intensity at an excitation of 360 nm and emission of 470 nm in a NOVO star microplate reader (BMGLabTech, Germany).

HCT116 cells = assay: AlamarBlue cytotoxicity assay, HCT116; format: cell-based; conditions: Homo sapiens, HCT-116, 48 hr treatment
Protocol: as §1, §2

pan-HDAC [2] = assay: Whole-cell HDAC inhibition assay in HeLa cells; conditions: read-out: HDAC inhibition IC50 HeLa, 18 hr incubation, Boc-Lys(ε-Ac)-AMC substrate
Protocol: as §3

HeLa cells = assay: AlamarBlue cytotoxicity assay, HeLa; format: cell-based; conditions: Homo sapiens, 48 hr treatment
Protocol: as §1, §2

A2780 cells = assay: AlamarBlue cytotoxicity assay, A2780; format: cell-based; conditions: Homo sapiens, 48 hr treatment
Protocol: as §1, §2

[3] = system: human cancer cell lines (HeLa, HCT116, A2780 and A549); assay: AlamarBlue cytotoxicity, summary over the four cancer cell lines; format: cell-based; conditions: collective range, read-out: Cytotoxic activity IC50 against cancer cells (range over cell lines and compounds)
Protocol: as §1, §2

pan-HDAC [4] = assay: Whole-cell pan-HDAC inhibition, summary over HeLa and HCT116; conditions: read-out: pan-HDAC inhibitory activity IC50 (range over HeLa and HCT116), collective range
Protocol: as §3

SMILES | IC50 (A549 cells) [µM] | IC50 (pan-HDAC [1]) [µM] | IC50 (HCT116 cells) [µM] | IC50 (pan-HDAC [2]) [µM] | IC50 (HeLa cells) [µM] | IC50 (A2780 cells) [µM] | IC50 ([3]; Homo sapiens) [µM] | IC50 (pan-HDAC [4]) [µM] | IC50 [3] [µM]
CC1=CC(=O)C2C(C)(C)C(=O)CC[C@@]2(C)[C@@H]1COc1ccc2ccc(=O)oc2c1 (some centres unmarked) [Conferdione (9), Conferdione] | 32.7 ± 7.96 | > 70 | 50.9 ± 5.19 | 17.4 ± 0.5 | 41.7 ± 11.1 | 38.8 ± 9.88 | – | – | –
CC1=CC(OC2OC(CO)C(O)C(O)C2O)C2C(C)(C)C(=O)CC[C@@]2(C)[C@@H]1COc1ccc2ccc(=O)oc2c1 (some centres unmarked) [Conferoside (10), Conferoside] | 45.8 ± 6.39 | 9.94 ± 1.89 | 35.3 ± 6.98 | 35.27 ± 0.16 | 40 ± 7.99 | 36.4 ± 12.3 | 11.6 to 49.4 | – | –
C=C(C)C(=O)OC/C=C\SSC(C)CC (centres unmarked) [Latisulfide B (14), Latisulfide B] | > 100 | > 70 | > 100 | > 70 | > 100 | > 100 | – | – | –
CC(C)=CCC/C(C)=C/CC/C(C)=C/COc1ccc2ccc(=O)oc2c1 [Umbelliprenin (4), Umbelliprenin] | > 100 | > 70 | > 100 | > 70 | > 100 | > 100 | – | – | –
CC1=CC[C@@H]2C(C)(C)[C@H](O)CC[C@@]2(C)[C@@H]1COc1ccc2ccc(=O)oc2c1 [Feselol (7), Feselol] | 25.5 ± 5.86 | 5.29 ± 0.22 | 28.4 ± 8.1 | 10.7 ± 1.31 | 34.8 ± 7.94 | 20.2 ± 9.68 | 11.6 to 49.4 | – | –
C/C=C(/C)C(=O)OC/C=C\SSC(C)CC (centres unmarked) [Latisulfide C (15), Latisulfide C] | 47.9 ± 4.73 | 25.91 ± 0.14 | 47.2 ± 8.18 | 10.6 ± 0.77 | 18.7 ± 8.5 | 49.4 ± 6.2 | 11.6 to 49.4 | – | –
CCC(C)SS/C=C\COC(C)=O (centres unmarked) [Latisulfide A (13), Latisulfide A] | > 100 | > 70 | > 100 | > 70 | 77.6 ± 3.43 | > 100 | – | – | –
CCC(C)SS/C=C/COC(=O)CC(C)(C)OC(C)=O (centres unmarked) [Persicasulfide A (2), Persicasulfide A] | 15.3 ± 6.77 | 4.41 ± 0.24 | 11.6 ± 10.5 | 5.47 ± 0.89 | 11.8 ± 11.6 | 19.4 ± 7.29 | 11.6 to 49.4 | – | –
CC1=CC(=O)[C@@H]2C(C)(C)[C@H](O)CC[C@@]2(C)[C@@H]1COc1ccc2ccc(=O)oc2c1 [Ligupersin A (8), Ligupersin A] | 33.5 ± 9.58 | 26.44 ± 0.03 | 68.5 ± 7.41 | 2.86 ± 1.4 | 22.9 ± 6.82 | 39.5 ± 10.8 | – | – | –
CC1=CCC2C(C)(C)C(=O)CC[C@@]2(C)[C@@H]1COc1ccc2ccc(=O)oc2c1 (some centres unmarked) [Conferone (6), Conferone] | 39.2 ± 5.23 | 1.06 ± 0.15 | 31.8 ± 8.33 | 1.17 ± 0.06 | 38.2 ± 7.8 | 32.4 ± 9.83 | – | 1.06 to 1.17 | < 50
CCC(C)SS/C=C\COC(=O)/C=C/c1ccc(O)c(OC)c1 (centres unmarked) [Latisulfide E (17), Latisulfide E] | 69.7 ± 7.71 | 19.9 ± 0.69 | 57.1 ± 5.21 | 5.02 ± 0.29 | 30.6 ± 14.9 | 71.3 ± 6.52 | – | – | –
CCC(C)SS/C=C\CO (centres unmarked) [Latisulfide D (16), Latisulfide D] | > 100 | > 70 | > 100 | > 70 | > 100 | > 100 | – | – | –
CCC(C)SS/C=C/COC(=O)CC(C)(C)O (centres unmarked) [Persicasulfide C (3), Persicasulfide C] | > 100 | > 70 | > 100 | > 70 | 64.8 ± 1.01 | > 100 | – | – | –
COc1cc(C(=O)OC2C3(C)CCC(C3)C2(C)C)ccc1O (centres unmarked) [Stylosin (19), Stylosin] | – | 14.93 ± 0.08 | 42.1 ± 6.1 | > 70 | 54.8 ± 7.53 | 25.5 ± 5.96 | – | – | –
C=C1CCC(=O)C(C)(C)[C@H]1CC/C(C)=C/COc1ccc2ccc(=O)oc2c1 [Farnesiferone B (5), Farnesiferone B] | 72.5 ± 4.83 | 40.4 ± 1.09 | 50.1 ± 6.29 | > 70 | 71.6 ± 6.4 | 78.9 ± 6.74 | – | – | –
